Tests used:
[1] = system: CHO-K1 cells; assay: Permeability of cell membrane to substrates (uptake and wash-out, fluorescence); assay type: cell-based; settings: 100 μM, 60 minutes
Experimental: CHO-K1 Cells (ATCC-CCL61) were cultured in a 1:1 mixture of Ham's F12 nutrients and Dulbecco's modified minimal essential medium supplemented with 10% fetal bovine serum (FBS), 100 U/ml penicillin, and […] streptomycin, in an atmosphere of 95% air and 5% CO2 at 37° C.

[2] = system: CHO-K1 cells; assay: Toxicity of Cl-alkanes, CellTiter-Glo Luminescence Cell Viability Assay; assay type: cell-based
Experimental: To study the toxicity of Cl-alkanes, CHO-K1 cells were plated in 96 well plates to a density of 5,000 cells per well. […] Viability of the cells was measured with CellTiter-Glo™ Luminescence Cell Viability Assay (Promega) according to the manufacturer's protocol. Generally, 100 μl of CellTiter-Glo™ reagent was added directly to the cells and the luminescence was recorded at 10 minutes using a DYNEX MLX microtiter plate luminometer.

[3] = target: DhaA.H272F (Rhodococcus rhodochrous, UniProt P0A3G2, H272F); assay type: binding; settings: dose dependent, HRP conjugated streptavidin

With `O=C(NCCOCCOCCCCCCCl)c1ccc(-c2c3ccc(=O)cc-3oc3cc(O)ccc23)c(C(=O)O)c1` [N-{2-[2-(6-Chlorohexyloxy)-ethoxy]-ethyl}-fluorescein-5-amide] the “crossing of the plasma membrane of CHO-K1 cells” value [1] was “did not cross the plasma membrane”.
`O=C(CCCC[C@@H]1SC[C@@H]2NC(=O)N[C@@H]21)NCCOCCOCCCCCCCl` [biotin-C10H21NO2—Cl, N-{2-[2-(6-Chlorohexyloxy)-ethoxy]ethyl}-biotin-amide] was tested, and the “toxicity on CHO-K1 cells” value ([2]; 24 hours of treatment at 100 μM) was “No toxicity” and the “concentration at which binding could be detected” value [3] was 0.2 µM.
For “N-{2-[2-(6-Chlorohexyloxy)-ethoxy]-ethyl}-tetramethylrhodamine-5-(and -6)-amide”, the “toxicity on CHO-K1 cells” value ([2]; 4 hour treatment at 100 μM (highest concentration tested)) was “no toxicity”.
